Where “and” joins values, the source holds several entries; their conditions need not be identical. Equal entries are not always repeated. Where a SMILES comes first, the peptide text is derived from it. [ ]: non-standard residue; d: D form. Hyp = O=C(O)[C@@H]1C[C@@H](O)CN1
What was measured:
[1] = tested on: CCL5/RANTES; assay: Example 9 Luminex, LPS hPBMCs: CCL5/RANTES; assay type: cell-based, human; conditions: PBMC + LPS(5 ug/ml)
Protocol: (§1) Treatment Human PBMCs were pretreated with YY-101, YDE-011 and YDE-043 or reference compound; Xiidra® at various concentration (ranging from 1 nM to 100 uM) for 2 h before stimulation. An equal volume of 0.5% DMSO was used as a vehicle control. Then, the cells were treated with LPS at 5 ug/ml. The supernatants from treated cells were harvested at 24 h and placed in a 96 well for Luminex cytokine & chemokine profiling using a Luminex 200 multiplex assay (Luminex; R&D system, USA).
(§2) The main study arm with triplicate wells per group in a 24-well plate: • 1. Blank • 2. PBMC: 0.5% DMSO • 3. PBMC+LPS (5 ug/ml) • 4. PBMC+YY-101 100 uM • 5. PBMC+YY-101 10 uM • 6. PBMC+YY-101 1 uM • 7. PBMC+YY-101 0.1 uM • 8. PBMC+YY-101 0.01 uM • 9. PBMC+LPS (5 ug/ml)+Xiidra®100 uM • 10. PBMC+LPS (5 ug/ml)+Xiidra® 10 uM • 11. PBMC+LPS (5 ug/ml)+Xiidra® 1 uM • 12. PBMC+LPS (5 ug/ml)+Xiidra®0.1 uM • 13. PBMC+LPS (5 ug/ml)+Xiidra®0.01 uM • 14. PBMC+LPS (5 ug/ml)+Xiidra®0.001 uM • 15. PBMC+LPS (5 ug/ml)+YY-101 100 uM • 16. PBMC+LPS (5 ug/ml)+YY-101 10 uM • 17. PBMC+LPS (5 ug/ml)+YY-101 1 uM • 18. PBMC+LPS (5 ug/ml)+YY-101 0.1 uM • 19. PBMC+LPS (5 ug/ml)+YY-101 0.01 uM • 20. PBMC+LPS (5 ug/ml)+YY-101 0.001 uM • 21. PBMC+LPS (5 ug/ml)+YDE-011 100 uM • 22. PBMC+LPS (5 ug/ml)+YDE-011 10 uM • 23. PBMC+LPS (5 ug/ml)+YDE-011 1 uM • 24. PBMC+LPS (5 ug/ml)+YDE-011 0.1 uM • 25. PBMC+LPS (5 ug/ml)+YDE-011 0.01 uM • 26. PBMC+LPS (5 ug/ml)+YDE-011 0.001 uM • 27. PBMC+LPS (5 ug/ml)+YDE-043 100 uM • 28. PBMC+LPS (5 ug/ml)+YDE-043 10 uM • 29. PBMC+LPS (5 ug/ml)+YDE-043 1 uM • 30. PBMC+LPS (5 ug/ml)+YDE-043 0.1 uM • 31. PBMC+LPS (5 ug/ml)+YDE-043 0.01 uM • 32. PBMC+LPS (5 ug/ml)+YDE-043 0.001 uM
(§3) Multiplex assay was used to measure 30 cytokines and chemokines. The 1:2, 1:10 and 1:200 diluted cell supernatant and serial dilution of the standard were dispensed into a 96 well plate at 50 ul/well. Then, the pre-mixed cocktail of antibody-coated magnetic beads was dispensed at 50 ul/well and incubated at room temperature for 2 h in a horizontal orbital microplate shaker at 800±500 rpm. The beads were washed using a magnetic device to prevent loss. The biotin-antibody was dispensed in 50 ul of each well and incubated at room temperature for 1 h in a shaker at 800±500 rpm. After washing, streptavidin-PE was added at 50 ul/well and incubated at room temperature for 30 min in a shaker under the same conditions. Finally, after washing, wash buffer (100 ul/well) was added to the plate and incubated in a shaker for 2 min. The Luminex™ 200 setting were set according to the manufacturer's protocol. The data was calculated with a standard five-parameter logistic nonlinear regression analysis of the data (xPonent software 4.2, USA). The levels of cytokine/chemokine are normalized to the live cell counts (1×10^5 cells/mL) and presented as concentrations per mL (pg/mL or ng/mL).

[2] = tested on: IL-8; assay: Example 9 Luminex, LPS hPBMCs: IL-8; assay type: cell-based, human
Protocol: as §1, §2, §3

[3] = test article 0.001 uM, single replicates (1st, 2nd, 3rd)
[4] = test article 0.01 uM, single replicates (1st, 2nd, 3rd)
[5] = test article 0.1 uM, single replicates (1st, 2nd, 3rd)
[6] = test article 1 uM, single replicates (1st, 2nd, 3rd)
[7] = test article 10 uM, single replicates (1st, 2nd, 3rd)
[8] = test article 100 uM, single replicates (1st, 2nd, 3rd)
[9] = PBMC + LPS(5 ug/ml) + test article 0.001 uM, Mean
[10] = PBMC + LPS(5 ug/ml) + test article 0.001 uM, single replicates (1st, 2nd, 3rd)
[11] = PBMC + LPS(5 ug/ml) + test article 0.01 uM, Mean
[12] = PBMC + LPS(5 ug/ml) + test article 0.01 uM, single replicates (1st, 2nd, 3rd)
[13] = PBMC + LPS(5 ug/ml) + test article 0.1 uM, Mean
[14] = PBMC + LPS(5 ug/ml) + test article 0.1 uM, single replicates (1st, 2nd, 3rd)
[15] = PBMC + LPS(5 ug/ml) + test article 1 uM, Mean
[16] = PBMC + LPS(5 ug/ml) + test article 1 uM, single replicates (1st, 2nd, 3rd)
[17] = PBMC + LPS(5 ug/ml) + test article 10 uM, Mean
[18] = PBMC + LPS(5 ug/ml) + test article 10 uM, single replicates (1st, 2nd, 3rd)
[19] = PBMC + LPS(5 ug/ml) + test article 100 uM, Mean
[20] = PBMC + LPS(5 ug/ml) + test article 100 uM, single replicates (1st, 2nd, 3rd)

`CC(C)C[C@H](NC(=O)CNC(=O)[C@H](CC(C)C)NC(=O)[C@H](CCC(N)=O)NC(=O)CNC(=O)[C@@H]1C[C@@H](O)CN1)C(=O)N[C@@H](C)C(=O)NCC(=O)N1CCC[C@H]1C(=O)N[C@@H](CCCCN)C(=O)O` [YDE-011] (H-[Hyp]GQLGLAGPK-OH) was tested, and the “Concentration (CCL5/RANTES)” value ([1]; test article 0.001 uM, Mean) was 209.7 pg/mL, the “MFI (Bead name: CCL5/RANTES)” value ([1]; test article 0.001 uM, Mean) was 477.2 and the “conc/live cell (CCL5/RANTES)” value ([1]; test article 0.001 uM, Mean) was 39.5 pg/10^5. For the same compound, the “Concentration (CCL5/RANTES)” value [1, 3] was 202.5 pg/ml (2×) and 224.1 pg/ml, the “MFI (Bead name: CCL5/RANTES)” value [1, 3] was 455.5 (2×) and 520.5 and the “conc/live cell (CCL5/RANTES)” value [1, 3] was 45.0 pg/10^5 and 34.9 pg/10^5 and 38.6 pg/10^5. For the same compound, the “Concentration (CCL5/RANTES)” value ([1]; test article 0.01 uM, Mean) was 215.3 pg/mL, the “MFI (Bead name: CCL5/RANTES)” value ([1]; test article 0.01 uM, Mean) was 494.0 and the “conc/live cell (CCL5/RANTES)” value ([1]; test article 0.01 uM, Mean) was 37.1 pg/10^5. For the same compound, the “Concentration (CCL5/RANTES)” value [1, 4] was 216.5 pg/mL and 220.2 pg/mL and 209.4 pg/mL, the “MFI (Bead name: CCL5/RANTES)” value [1, 4] was 497.5 and 508.5 and 476.0 and the “conc/live cell (CCL5/RANTES)” value [1, 4] was 34.9 pg/10^5 and 43.2 pg/10^5 and 33.2 pg/10^5. For the same compound, the “Concentration (CCL5/RANTES)” value ([1]; test article 0.1 uM, Mean) was 207.0 pg/mL, the “MFI (Bead name: CCL5/RANTES)” value ([1]; test article 0.1 uM, Mean) was 468.8 and the “conc/live cell (CCL5/RANTES)” value ([1]; test article 0.1 uM, Mean) was 36.3 pg/10^5. The “Concentration (CCL5/RANTES)” value [1, 5] was 206.7 pg/mL and 205.2 pg/mL and 209.0 pg/mL, the “MFI (Bead name: CCL5/RANTES)” value [1, 5] was 468.0 and 463.5 and 475.0 and the “conc/live cell (CCL5/RANTES)” value [1, 5] was 31.3 pg/10^5 and 41.0 pg/10^5 and 36.7 pg/10^5. For the same compound, the “Concentration (CCL5/RANTES)” value ([1]; test article 1 uM, Mean) was 199.8 pg/mL, the “MFI (Bead name: CCL5/RANTES)” value ([1]; test article 1 uM, Mean) was 447.5 and the “conc/live cell (CCL5/RANTES)” value ([1]; test article 1 uM, Mean) was 39.8 pg/10^5. For the same compound, the “Concentration (CCL5/RANTES)” value [1, 6] was 205.5 pg/mL and 199.5 pg/mL and 194.4 pg/mL, the “MFI (Bead name: CCL5/RANTES)” value [1, 6] was 464.5 and 446.5 and 431.5 and the “conc/live cell (CCL5/RANTES)” value [1, 6] was 37.4 pg/10^5 and 41.6 pg/10^5 and 40.5 pg/10^5. The “Concentration (CCL5/RANTES)” value ([1]; test article 10 uM, Mean) was 204.9 pg/mL, the “MFI (Bead name: CCL5/RANTES)” value ([1]; test article 10 uM, Mean) was 462.7 and the “conc/live cell (CCL5/RANTES)” value ([1]; test article 10 uM, Mean) was 38.9 pg/10^5. The “Concentration (CCL5/RANTES)” value [1, 7] was 214.7 pg/mL and 201.8 pg/mL and 198.1 pg/mL, the “MFI (Bead name: CCL5/RANTES)” value [1, 7] was 492.0 and 453.5 and 442.5 and the “conc/live cell (CCL5/RANTES)” value [1, 7] was 39.8 pg/10^5 and 34.8 pg/10^5 and 42.1 pg/10^5. For the same compound, the “Concentration (CCL5/RANTES)” value ([1]; test article 100 uM, Mean) was 161.8 pg/mL, the “MFI (Bead name: CCL5/RANTES)” value ([1]; test article 100 uM, Mean) was 338.5 and the “conc/live cell (CCL5/RANTES)” value ([1]; test article 100 uM, Mean) was 26.7 pg/10^5. The “Concentration (CCL5/RANTES)” value [1, 8] was 170.4 pg/mL and 153.5 pg/mL and 161.5 pg/mL, the “MFI (Bead name: CCL5/RANTES)” value [1, 8] was 362.5 and 315.5 and 337.5 and the “conc/live cell (CCL5/RANTES)” value [1, 8] was 27.9 pg/10^5 and 25.2 pg/10^5 and 26.9 pg/10^5. The Concentration [2, 9] was 26175.1 pg/mL, the conc/live cell [2, 9] was 4943.8 pg/10^5 and the Concentration [2, 10] was 25949.1 pg/mL and 25243.2 pg/mL and 27333.0 pg/mL. The conc/live cell [2, 10] was 5766.5 pg/10^5 and 4352.3 pg/10^5 and 4712.6 pg/10^5, the Concentration [2, 11] was 27857.4 pg/mL and the conc/live cell [2, 11] was 4784.6 pg/10^5. For the same compound, the Concentration [2, 12] was 29106.4 pg/mL and 27148.3 pg/mL and 27317.6 pg/mL, the conc/live cell [2, 12] was 4694.6 pg/10^5 and 5323.2 pg/10^5 and 4336.1 pg/10^5 and the Concentration [2, 13] was 25867.3 pg/mL. The conc/live cell [2, 13] was 4548.1 pg/10^5, the Concentration [2, 14] was 25672.8 pg/mL and 26225.6 pg/mL and 25703.5 pg/mL and the conc/live cell [2, 14] was 3889.8 pg/10^5 and 5245.1 pg/10^5 and 4509.4 pg/10^5. The Concentration [2, 15] was 25627.6 pg/mL, the conc/live cell [2, 15] was 5106.9 pg/10^5 and the Concentration [2, 16] was 26271.7 pg/mL and 26379.3 pg/mL and 24231.7 pg/mL. For the same compound, the conc/live cell [2, 16] was 4776.7 pg/10^5 and 5495.7 pg/10^5 and 5048.3 pg/10^5, the Concentration [2, 17] was 25105.4 pg/mL and the conc/live cell [2, 17] was 4765.2 pg/10^5. For the same compound, the Concentration [2, 18] was 25626.7 pg/mL and 25335.2 pg/mL and 24354.2 pg/mL, the conc/live cell [2, 18] was 4745.7 pg/10^5 and 4368.1 pg/10^5 and 5181.8 pg/10^5 and the Concentration [2, 19] was 26038.5 pg/mL. The conc/live cell [2, 19] was 4290.3 pg/10^5, the Concentration [2, 20] was 27702.6 pg/mL and 26563.8 pg/mL and 23849.1 pg/mL and the conc/live cell [2, 20] was 4541.4 pg/10^5 and 4354.7 pg/10^5 and 3974.8 pg/10^5.

Reference: patent US20230146455A1, “TREATMENT OF INFLAMMATORY DISEASES WITH PEPTIDES AND PHARMACEUTICAL COMPOSITIONS” (Yuyu Pharma, Inc., priority 2020, published 2023)
